Data reported in patent publication US20090149482A1, “STEREOCHEMICALLY DEFINED DIPEPTIDE ESTERS OF ANTIVIRAL AGENTS FOR ENHANCED OCULAR TREATMENT” (priority 2001, published 2009).
Read-outs that look alike come from different tables or passages of the source. One block for each molecule: values may come before it.

Key:
[1] = Plasma pharmacokinetics of stereoisomeric prodrugs following oral administration in rats
[2] = for first order hydrolytic rate constant k: 37° C.
HSV-1 strain McKrae = experiment: HSV-1 epithelial keratitis rabbit model, topical treatment, SLE scores; format: in vivo
Text: The rabbit eye is an excellent model to study acute HSV-1 epithelial keratitis. Also, spontaneous and induced ocular HSV-1 shedding and corneal epithelial disease in rabbits has been used as a model of human ocular HSV-1 reactivation and recurrence. HSV-1 strain McKrae was used in studies for epithelial keratitis. HSV-1 strain RE was used for studies of HSV stromal keratitis.
i) Epithelial Keratitis: A group of ten rabbits was used to study each compound. Both eyes of all rabbits were used. An aqueous vehicle (like a placebo) and one positive control were obtained using 1% TFT (Viroptic®). Each compound at 1% concentration (TFT=33 mM, Gly-Gly-ACV=26.6 mM, Val-Val-ACV=18.6 mM) were applied (50 μl) topically 5 times per day every two hours starting at 8:00 a.m. and ending at 4:00 p.m. The treatment began on the 3rd post-inoculation day and continued for 5 consecutive days. Slit-lamp examinations were performed once every day for 8 days and thereafter once every other day until lesions resolved.

[3] = test system: rabbit corneal cell line (SIRC); conditions: for percent survival: SIRC cells
in vitro = conditions: human, Caco-2, pH 7.4
hPEPT1 = target: T1, hPEPT1 (Homo sapiens, UniProt P46059); experiment: [3H] Glycylsarcosine uptake and its inhibition in Caco-2 cells (affinity towards peptide transporter); format: cell-based; conditions: for Vmax of Gly-Sar uptake in presence of the drug: Gly-Sar with drug (10 mM); for Ki: read-out: Ki
T1 construct: endogenous in cells; host or cells: Caco-2 (human colon carcinoma, ATCC)
T1 sequence (P46059 1-708): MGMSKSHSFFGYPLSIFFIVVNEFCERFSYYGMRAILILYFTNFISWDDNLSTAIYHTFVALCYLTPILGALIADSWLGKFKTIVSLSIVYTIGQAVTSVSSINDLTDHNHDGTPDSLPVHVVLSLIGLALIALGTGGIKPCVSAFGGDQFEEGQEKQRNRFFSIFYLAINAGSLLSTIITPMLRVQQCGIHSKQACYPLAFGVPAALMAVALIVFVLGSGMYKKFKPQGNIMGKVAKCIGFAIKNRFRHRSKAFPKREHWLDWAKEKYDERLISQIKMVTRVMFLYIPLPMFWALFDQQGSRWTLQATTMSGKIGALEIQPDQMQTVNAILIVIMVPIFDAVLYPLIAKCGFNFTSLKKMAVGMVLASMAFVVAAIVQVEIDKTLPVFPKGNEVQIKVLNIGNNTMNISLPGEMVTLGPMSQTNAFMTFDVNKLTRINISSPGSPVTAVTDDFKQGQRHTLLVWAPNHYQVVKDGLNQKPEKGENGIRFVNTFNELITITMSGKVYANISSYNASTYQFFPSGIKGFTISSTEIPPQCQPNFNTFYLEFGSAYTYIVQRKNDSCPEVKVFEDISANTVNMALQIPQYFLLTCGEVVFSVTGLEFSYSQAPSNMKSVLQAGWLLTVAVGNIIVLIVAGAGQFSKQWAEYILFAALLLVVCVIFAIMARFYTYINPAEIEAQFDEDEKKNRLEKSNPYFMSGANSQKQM
Text: Materials: [^3H] Glycylsarcosine (Gly-Sar; 4 Ci/mmol) was purchased from Moravek Biochemicals (Brea, Calif.) and [^14C] Mannitol (50 mCi/mmol) was supplied by Amersham (Piscataway, N.J.). Human colon carcinoma derived Caco-2 cells were obtained from American Type Culture Collection (ATCC, Rockville, Md.). The growth medium, Dulbecco's modified Eagle Medium was obtained from Life Technologies (Grand Island, N.Y.). […] Fetal bovine serum (FBS) was purchased from JRH Biosciences (Lenexa, Kans.). Culture flasks (75 cm^2 growth area), polyester Transwells® (pore size 0.4 Cm with diameter 6.5 mm) and polyester membranes (pore size 0.4 Cm) were procured from Costar (Bedford, Mass.). The buffer components and solvents were obtained from Fisher Scientific (St. Louis, Mo.). All the di-peptide esters of acyclovir were custom synthesized in our laboratory. […] Cell Culture: All cultures were maintained in humidified incubator at 37° C. with a 5% carbon dioxide in air atmosphere. Caco-2 cells were obtained at passage 25 from American Type Culture Collection (ATCC) and grown in plastic tissue culture flasks. […] When 80% confluent, these cells were removed by treating them with Trypsin/EDTA and plated at a density of 100,000 cells/cm^2 on collagen coated plastic dishes containing clear polyester membranes (0.636 cm^2, […]) or 12-well tissue culture treated plastic plates. Cells were then grown in medium containing 10% FBS (heat-inactivated). […] [^14C] […] Metabolism studies in Cell Suspensions: Confluent Caco-2 cells, grown in tissue culture flasks were isolated with the aid of mechanical scraper and washed thrice with DPBS. […] One-hundred micro-liters of samples were withdrawn at predetermined time intervals and the sample was purified by precipitating the cellular proteins into the organic solvent mixture and stored at −80° C. until further analysis. The protein content of the cell suspension was determined by the method of Bradford using bovine serum albumin as the standard (BioRad protein estimation kit, Hercules, Calif.). […] Transport studies: Transport experiments were done using Side-Bi-Side™ diffusion cells (type VSC-1, Crown Glass Company Inc.) and Transwell® inserts. Prior to the experiment with Gly-Sar, Caco-2 cell monolayers grown on the clear polyester membranes and Transwell® inserts were washed with DPBS (pH 6.0) and incubated at 37° C. Freshly prepared drug solutions in DPBS (pH 6.0) was placed in the donor chamber and the receiver chamber was filled with DPBS. The volumes of donor and receptor chambers were 3 ml each for Side-Bi-Side™ diffusion cells and 0.5 ml and 1.5 ml respectively for Transwell® inserts. […] The samples were stored at −80° C. until analyzed HPLC. All experiments were performed at 37° C. […] The concentration dependent uptake of glycylsarcosine was studied using [^3H] […] For Dixon plots and Dose Response studies [^3H] […] Following incubation, the cell monolayers were washed three times with ice-cold HEPES buffer to terminate the uptake experiment. After the washings cells were lysed overnight using 1 ml 0.1% (w/v) Triton X-100 in 0.3 N NaOH at room temperature. Aliquots (500 μl) from each well were then transferred to scintillation vials containing 5 ml scintillation cocktail (Fisher Scientific, Fairlawn, N.J.). […] The amount of protein in the cell lysate was measured by the BioRad protein estimation kit using bovine serum albumin as standard (BioRad Protein estimation Kit, Hercules, Calif.). Analytical Procedures: All samples were assayed using HPLC. […] The column used was a C18 Luna column 4.6×250 mm (Phenomenex). The mobile phase consisted of a mixture of buffer and an organic modifier. The percentage of organic phase was varied in order to elute compounds of interest.

EBV = experiment: In vitro antiviral screening, VCA Elisa; format: cell-based, epstein-barr virus
HSV-1 = experiment: In vitro antiviral screening, CPE inhibition in HFF cells; format: cell-based, herpes simplex virus 1; conditions: read-out: EC50 (concentration required to inhibit viral cytopathogenicity by 50%)
VZV = experiment: as above; format: cell-based, varicella zoster virus
[4] = rats, jugular vein
HCMV = experiment: In vitro antiviral screening, CPE inhibition in HFF cells; format: cell-based, human cytomegalovirus
[5] = rats, portal vein
HSV-2 = experiment: In vitro antiviral screening, CPE inhibition in HFF cells; format: cell-based, herpes simplex virus 2
[6] = test system: oligopeptide transporter on the rabbit cornea
[7] = test system: human fibroblast foreskin cells (HFF)
[8] = plasma analyte following oral administration of LDACV in rats
[9] = Caco-2 cell suspension at pH 7.4, * = no intact drug detected during the experiment
[10] = oral, analyte amino acid intermediate
[11] = oral 20.0 mg/kg equivalent, total concentration in terms of ACV

Structure (SMILES): CC(C)[C@@H](N)C(=O)OCCOCn1cnc2c(=O)[nH]c(N)nc21 [DACV]
AUC [1, 8]: 261.89 ± 23.64 µM·min | Cmax [1, 8]: 8.68 ± 1.24 µM | Tmax [1, 8]: 15 min

Structure (SMILES): CC(C)C(N)C(=O)NC(C(=O)OCCOCn1cnc2c(=O)[nH]c(N)nc21)C(C)C [DLACV, D-valine-L-valine-acyclovir]
concentrations in the systemic circulation ([1]; oral administration in rats): Very little concentrations were observed

Structure (SMILES): NCC(=O)NCC(=O)OCCOCn1cnc2c(=O)[nH]c(N)nc21 [Gly-Gly-ACV]
stability as an ophthalmic solution ([2]; pH 5.6, concluded from rate constants): stable for two years | first order hydrolytic rate constant k ([2]; pH 7.4): 6.75 k × 10^3 min^−1 | first order hydrolytic rate constant k ([2]; pH 9.0): 14.85 k × 10^3 min^−1 | intact drug after incubation with the cell suspension (Caco-2 cell suspension; Caco-2 cell suspension): no intact drug detected within one minute | efficacy relative to TFT (SLE scores) (HSV-1 strain McKrae): more effective than TFT | Concentration required to achieve an SLE Score of 0.3 (HSV-1 strain McKrae; 14 days post-inoculation, 1% topical 5 times per day): 26.6 mM | percent survival ([3]; 0.25 mM): 104.6% | percent survival ([3]; 0.5 mM): 94.7% | percent survival ([3]; 1 mM): 90.1% | percent survival ([3]; 2 mM): 86.2% | percent survival ([3]; 5 mM): 63.8% | percent survival ([3]; 10 mM): 49.32%

half-life at 0.2 mM (in vitro): 21.5 ± 3.2 min | Vmax of Gly-Sar uptake in presence of the drug (hPEPT1; Lineweaver-Burk): 0.094 ± 0.11 µmol/min/mg | Ki (hPEPT1; Lineweaver-Burk): 3940 ± 610 µM | Ki (hPEPT1; Michaelis-Menten): 3560 ± 1980 µM | 10^2 × kobs (Caco-2 cell suspension; [9]): 3.21 ± 0.46 min^−1mg^−1 protein
Structure (SMILES): NCC(=O)NC(Cc1ccc(O)cc1)C(=O)OCCOCn1cnc2c(=O)[nH]c(N)nc21 (stereo not drawn) [Gly-Tyr-ACV]

Structure (SMILES): CC(C)C(NC(=O)CN)C(=O)OCCOCn1cnc2c(=O)[nH]c(N)nc21 (stereo not drawn) [Gly-Val-ACV, Glycine-Valine-Acyclovir]
Vmax of Gly-Sar uptake in presence of the drug (hPEPT1; Lineweaver-Burk): 0.095 ± 0.07 µmol/min/mg | Ki (hPEPT1; Lineweaver-Burk): 1820 ± 340 µM | Ki (hPEPT1; Michaelis-Menten): 1420 ± 240 µM | EC50 (EBV): 5.61 µM | EC50 (HSV-1): 12.6 µM | 10^2 × kobs (Caco-2 cell suspension; Caco-2, pH 7.4): 0.637 ± 0.01 min^−1mg^−1 protein | t1/2 (Caco-2 cell suspension; human, Caco-2, pH 7.4): 108.1 ± 2.4 min | EC50 (VZV): 0.38 µM | AUC(0-t)(CC) ([4]; oral 20.0 mg/kg equivalent): 633.8 ± 115.5 µg·min/mL | AUCinf(CC) ([4]; oral 20.0 mg/kg equivalent): 900.7 ± 74.8 µg·min/mL | Clast(CC) ([4]; oral): 1.1 ± 0.21 µg/mL | Cmax(CC) ([4]; oral): 7.2 ± 3.3 µg/mL | Tmax(CC) ([4]; oral): 22.2 ± 8.3 min | AUC(0-t)(ACV) ([4]; oral, analyte acyclovir): 571.68 ± 99.22 µg·min/mL | Cl(ACV) ([4]; oral, analyte acyclovir): 13.3 ± 3.5 mL/min | Cmax(ACV) ([4]; oral, analyte acyclovir): 6.9 ± 1.50 µg/mL | MRT(ACV) ([4]; oral, analyte acyclovir): 79.61 ± 10.64 min | AUC(0-t)(AA) [4, 10]: 133.1 ± 48.2 µg·min/mL | Cl(AA) [4, 10]: 26.8 ± 4.5 mL/min | Vmax of concentration dependent transport (Caco-2 monolayers): 0.014±0.00058 moles cm^−2 min^−1 | inhibition in transport in presence of Gly-Sar (Caco-2 monolayers): 63 % inhibition | Papp (Caco-2 monolayers; Caco-2, pH 6): 2.80±0.59 ×10^−6 cm/sec | Papp (Caco-2 monolayers; Caco-2, pH 7.4): 5.23±0.57 ×10^−6 cm/sec | Km (Caco-2 monolayers; read-out: Km of concentration dependent transport): 3.16 ± 0.31 mM | EC50 (HCMV): 59.5 µM | AUC(0-t)(TC) [5, 11]: 416.1 ± 140.9 µg·min/mL | AUCinf(TC) [5, 11]: 598.7 ± 164.1 µg·min/mL | Clast(TC) ([5]; oral): 0.81 ± 0.12 µg/mL | Tmax(TC) ([5]; oral): 21.4 ± 5.77 min | AUC(0-t)(ACV) ([5]; oral, analyte acyclovir): 347.8 ± 108.2 µg·min/mL | Cl(Acv) ([5]; oral, analyte acyclovir): 12.5 ± 5.5 mL/min | Cmax(ACV) ([5]; oral, analyte acyclovir): 4.06 ± 1.44 µg/mL | MRT(ACV) ([5]; oral, analyte acyclovir): 64.1 ± 5.35 min | AUC(0-t)(AA) [5, 10]: 143.6 ± 51.4 µg·min/mL | Cl(AA) [5, 10]: 31.9 ± 5.3 ml min^−1I | Cmax(AA) [5, 10]: 0.99 ± 0.54 µg/mL | Cmax(TC) ([5]; oral, total concentration in terms of ACV): 4.07 ± 1.03 µg/mL | EC50 (HSV-2): 22.7 µM | Papp (% Control) of [3H] Val-ACV [6]: 23.7 (±6.6) % Control | CC50 [7]: > 160 µM | % viable cells [3]: 81.1±6.7%

half-life at 0.2 mM (in vitro): 13.3 ± 1.5 min | Vmax of Gly-Sar uptake in presence of the drug (hPEPT1; Lineweaver-Burk): 0.087 ± 0.09 µmol/min/mg | Ki (hPEPT1; Lineweaver-Burk): 8230 ± 430 µM | Ki (hPEPT1; Michaelis-Menten): 7990 ± 540 µM | 10^2 × kobs (Caco-2 cell suspension; [9]): 5.22 ± 0.58 min^−1mg^−1 protein
Structure (SMILES): Nc1nc2c(ncn2COCCOC(=O)CNC(=O)C(N)Cc2ccc(O)cc2)c(=O)[nH]1 (stereo not drawn) [Tyr-Gly-ACV]
